Patent US20250025473A1 (priority 2021, published 2025)
pIC50: −log10 of the molar value. Read-outs that look alike come from different tables or passages of the source.

Key:
HSV-2(G) = assay: Nuclear transport of VP16 (immunoblot of nuclear extracts); details: HaCat and primary vaginal cells, 1 h post-infection; CIMSS 10 μM, antibody 2 μg/ml
[1] = test system: primary vaginal epithelial cells; assay: Proliferation and viability, primary vaginal epithelial cells; assay type: cell-based, human; details: 10 or 50 μM, about 50% confluent primary vaginal epithelial cells, up to 120 h
Experimental: Results are presented as mean±SEM odu as a percentage of the DMSO control (n=2 independent experiments each conducted in duplicate for C and 1 experiment conducted in duplicate for D). Results in B-D were compared by ANOVA, *p<0.05, **p<0.01, ***p<0.001, ****p<0.0001).
Cell proliferation and viability were determined using the Cell Titer 96® Aqueous One Solution and optical density was determined using a SpectraMax® M5e Molecular Devices multidetection microplate reader. […] The cells were then fixed and stained for activated caspases (red) and SYTOX Green (for integrity of plasma membrane) by Image-iT™ LIVE red Poly Caspase Detection kit. Nuclei were stained with Hoechst. Images were acquired by laser confocal microscope ZeissLive/DuoScan equipped with oil immersion objectives 63×1.1 and captured in an optical slice of 0.37 μm with appropriate filters. Alternatively, immunoblots were prepared and probed with antibodies to cleaved PARP-1 or cleaved caspase 8.

panel of 393 kinases [2] = molecular target: T1, panel of 393 kinases (Homo sapiens, UniProt P42345); assay: biochemical; details: CIMSS 10 μM, 10 μM ATP
T1 construct: purchased Reaction Biology Corporation

panel of 393 kinases [3] = molecular target: T2, panel of 393 kinases (Homo sapiens, UniProt Q9NZJ5); assay: biochemical; details: CIMSS 10 μM, 10 μM ATP
T2 construct: purchased Reaction Biology Corporation
T2 sequence (Q9NZJ5 30-1116): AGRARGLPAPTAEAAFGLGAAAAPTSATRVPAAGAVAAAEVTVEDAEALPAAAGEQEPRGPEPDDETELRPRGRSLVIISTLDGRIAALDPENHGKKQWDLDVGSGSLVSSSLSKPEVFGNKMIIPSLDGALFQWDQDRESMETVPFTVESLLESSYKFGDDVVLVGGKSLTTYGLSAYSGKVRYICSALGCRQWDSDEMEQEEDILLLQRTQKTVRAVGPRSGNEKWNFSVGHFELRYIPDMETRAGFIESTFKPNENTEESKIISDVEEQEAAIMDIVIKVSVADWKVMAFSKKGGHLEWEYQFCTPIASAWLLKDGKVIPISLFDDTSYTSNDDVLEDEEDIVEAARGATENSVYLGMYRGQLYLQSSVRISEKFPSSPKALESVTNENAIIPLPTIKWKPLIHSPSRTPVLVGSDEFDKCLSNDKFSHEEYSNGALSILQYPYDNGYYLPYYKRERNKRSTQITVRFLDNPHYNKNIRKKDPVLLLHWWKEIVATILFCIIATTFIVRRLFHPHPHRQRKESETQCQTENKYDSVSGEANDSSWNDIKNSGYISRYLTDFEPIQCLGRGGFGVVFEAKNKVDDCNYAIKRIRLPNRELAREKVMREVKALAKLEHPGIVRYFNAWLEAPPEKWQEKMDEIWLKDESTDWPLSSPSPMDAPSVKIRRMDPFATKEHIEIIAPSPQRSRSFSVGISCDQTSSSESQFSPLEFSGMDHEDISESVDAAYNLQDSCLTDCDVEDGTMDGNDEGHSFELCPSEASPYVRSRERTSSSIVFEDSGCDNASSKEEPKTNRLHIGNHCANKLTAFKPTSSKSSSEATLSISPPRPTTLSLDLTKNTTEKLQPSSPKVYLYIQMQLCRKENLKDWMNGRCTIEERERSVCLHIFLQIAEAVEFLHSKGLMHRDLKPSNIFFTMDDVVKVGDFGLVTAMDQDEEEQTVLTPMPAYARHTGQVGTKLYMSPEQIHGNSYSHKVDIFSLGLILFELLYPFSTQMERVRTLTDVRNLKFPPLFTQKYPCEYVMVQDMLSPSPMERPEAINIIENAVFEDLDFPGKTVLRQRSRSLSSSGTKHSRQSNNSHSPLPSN

panel of 393 kinases [4] = molecular target: T3, panel of 393 kinases (Homo sapiens, UniProt Q15118); assay: biochemical; details: CIMSS 10 μM, 10 μM ATP
T3 construct: purchased Reaction Biology Corporation
T3 sequence (Q15118 29-436): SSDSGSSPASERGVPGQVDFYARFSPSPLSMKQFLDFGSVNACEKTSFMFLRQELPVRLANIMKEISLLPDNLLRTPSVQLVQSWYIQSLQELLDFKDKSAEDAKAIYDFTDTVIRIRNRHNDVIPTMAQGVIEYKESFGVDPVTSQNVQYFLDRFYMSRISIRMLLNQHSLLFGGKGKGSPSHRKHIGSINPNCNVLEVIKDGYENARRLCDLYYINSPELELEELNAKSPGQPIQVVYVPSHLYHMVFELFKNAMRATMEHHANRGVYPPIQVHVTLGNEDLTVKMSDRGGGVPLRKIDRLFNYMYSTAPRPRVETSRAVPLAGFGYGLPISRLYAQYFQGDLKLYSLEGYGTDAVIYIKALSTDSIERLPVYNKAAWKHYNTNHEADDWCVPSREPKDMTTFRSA

panel of 393 kinases [5] = molecular target: T4, panel of 393 kinases (Homo sapiens, UniProt Q16654); assay: biochemical; details: CIMSS 10 μM, 10 μM ATP
T4 construct: purchased Reaction Biology Corporation
T4 sequence (Q16654 whole entry): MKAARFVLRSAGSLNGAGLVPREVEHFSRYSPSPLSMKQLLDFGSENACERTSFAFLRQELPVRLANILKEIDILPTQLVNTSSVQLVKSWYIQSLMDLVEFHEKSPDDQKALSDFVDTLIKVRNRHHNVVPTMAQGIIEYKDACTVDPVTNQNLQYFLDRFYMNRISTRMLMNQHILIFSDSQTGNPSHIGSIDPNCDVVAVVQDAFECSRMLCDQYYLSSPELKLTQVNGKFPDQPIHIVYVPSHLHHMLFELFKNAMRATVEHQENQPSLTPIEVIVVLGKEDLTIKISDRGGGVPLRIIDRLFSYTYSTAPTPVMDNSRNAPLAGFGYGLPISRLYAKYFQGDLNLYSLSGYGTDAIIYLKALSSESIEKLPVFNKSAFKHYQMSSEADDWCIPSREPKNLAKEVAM

panel of 393 kinases [6] = molecular target: T5, panel of 393 kinases (Homo sapiens, UniProt Q15119); assay: biochemical; details: CIMSS 10 μM, 10 μM ATP
T5 construct: purchased Reaction Biology Corporation

panel of 393 kinases [7] = molecular target: T6, panel of 393 kinases (Homo sapiens, UniProt Q13131); assay: biochemical; details: CIMSS 10 μM, 10 μM ATP
T6 construct: purchased Reaction Biology Corporation
T6 sequence (Q13131 whole entry): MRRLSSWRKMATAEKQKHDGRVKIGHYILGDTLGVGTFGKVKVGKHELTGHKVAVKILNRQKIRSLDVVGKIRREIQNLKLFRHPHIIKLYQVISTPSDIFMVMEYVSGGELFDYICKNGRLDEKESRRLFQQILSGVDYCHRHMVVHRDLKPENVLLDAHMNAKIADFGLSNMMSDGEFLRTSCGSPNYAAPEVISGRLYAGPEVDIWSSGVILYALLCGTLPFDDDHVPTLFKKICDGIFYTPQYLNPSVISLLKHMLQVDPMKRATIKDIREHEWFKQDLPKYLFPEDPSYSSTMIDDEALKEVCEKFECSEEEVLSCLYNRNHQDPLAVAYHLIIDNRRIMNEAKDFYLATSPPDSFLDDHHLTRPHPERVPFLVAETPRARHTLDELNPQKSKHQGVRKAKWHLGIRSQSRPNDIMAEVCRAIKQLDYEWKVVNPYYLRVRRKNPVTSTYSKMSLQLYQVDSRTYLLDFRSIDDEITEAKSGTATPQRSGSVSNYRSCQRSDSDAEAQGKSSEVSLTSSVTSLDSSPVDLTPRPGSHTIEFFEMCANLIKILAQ

panel of 393 kinases [8] = molecular target: T7, panel of 393 kinases (Homo sapiens, UniProt Q15120); assay: biochemical; details: CIMSS 10 μM, 10 μM ATP
T7 construct: purchased Reaction Biology Corporation
T7 sequence (Q15120 whole entry): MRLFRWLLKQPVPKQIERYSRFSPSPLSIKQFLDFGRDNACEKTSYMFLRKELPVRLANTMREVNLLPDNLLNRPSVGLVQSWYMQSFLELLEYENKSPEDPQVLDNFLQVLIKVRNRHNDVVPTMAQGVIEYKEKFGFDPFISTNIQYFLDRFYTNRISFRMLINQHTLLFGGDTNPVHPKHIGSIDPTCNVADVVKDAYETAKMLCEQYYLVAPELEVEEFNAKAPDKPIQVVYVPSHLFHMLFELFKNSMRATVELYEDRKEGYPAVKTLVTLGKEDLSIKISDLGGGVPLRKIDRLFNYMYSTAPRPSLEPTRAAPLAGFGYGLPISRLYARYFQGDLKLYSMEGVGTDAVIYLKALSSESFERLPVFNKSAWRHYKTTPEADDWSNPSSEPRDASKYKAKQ

panel of 393 kinases [9] = molecular target: T8, panel of 393 kinases (Homo sapiens, UniProt Q9P2K8); assay: biochemical; details: CIMSS 10 μM, 10 μM ATP
T8 construct: purchased Reaction Biology Corporation

panel of 393 kinases [10] = molecular target: T9, panel of 393 kinases (Homo sapiens, UniProt Q96QT4); assay: biochemical; details: CIMSS 10 μM, 10 μM ATP
T9 construct: purchased Reaction Biology Corporation

panel of 393 kinases [11] = molecular target: T10, panel of 393 kinases (Homo sapiens, UniProt P19525); assay: biochemical; details: CIMSS 10 μM, 10 μM ATP
T10 construct: purchased Reaction Biology Corporation
T10 sequence (P19525 whole entry): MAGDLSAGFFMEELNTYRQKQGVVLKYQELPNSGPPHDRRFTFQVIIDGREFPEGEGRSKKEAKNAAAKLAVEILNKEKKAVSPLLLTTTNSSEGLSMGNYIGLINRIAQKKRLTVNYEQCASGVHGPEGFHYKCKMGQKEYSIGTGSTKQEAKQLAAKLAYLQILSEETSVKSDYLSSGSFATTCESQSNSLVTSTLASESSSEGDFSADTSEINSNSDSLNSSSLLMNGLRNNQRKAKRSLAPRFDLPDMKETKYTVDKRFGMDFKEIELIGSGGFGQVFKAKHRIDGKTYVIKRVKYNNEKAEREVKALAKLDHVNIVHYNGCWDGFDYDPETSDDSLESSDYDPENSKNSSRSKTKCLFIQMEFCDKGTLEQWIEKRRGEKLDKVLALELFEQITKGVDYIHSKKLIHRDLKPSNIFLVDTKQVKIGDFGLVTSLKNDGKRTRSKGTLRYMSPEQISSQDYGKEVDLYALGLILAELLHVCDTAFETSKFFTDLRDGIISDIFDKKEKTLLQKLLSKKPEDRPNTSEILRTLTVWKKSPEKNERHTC

panel of 393 kinases [12] = molecular target: T11, panel of 393 kinases (Homo sapiens, UniProt P54646); assay: biochemical; details: CIMSS 10 μM, 10 μM ATP
T11 construct: purchased Reaction Biology Corporation
T11 sequence (P54646 whole entry): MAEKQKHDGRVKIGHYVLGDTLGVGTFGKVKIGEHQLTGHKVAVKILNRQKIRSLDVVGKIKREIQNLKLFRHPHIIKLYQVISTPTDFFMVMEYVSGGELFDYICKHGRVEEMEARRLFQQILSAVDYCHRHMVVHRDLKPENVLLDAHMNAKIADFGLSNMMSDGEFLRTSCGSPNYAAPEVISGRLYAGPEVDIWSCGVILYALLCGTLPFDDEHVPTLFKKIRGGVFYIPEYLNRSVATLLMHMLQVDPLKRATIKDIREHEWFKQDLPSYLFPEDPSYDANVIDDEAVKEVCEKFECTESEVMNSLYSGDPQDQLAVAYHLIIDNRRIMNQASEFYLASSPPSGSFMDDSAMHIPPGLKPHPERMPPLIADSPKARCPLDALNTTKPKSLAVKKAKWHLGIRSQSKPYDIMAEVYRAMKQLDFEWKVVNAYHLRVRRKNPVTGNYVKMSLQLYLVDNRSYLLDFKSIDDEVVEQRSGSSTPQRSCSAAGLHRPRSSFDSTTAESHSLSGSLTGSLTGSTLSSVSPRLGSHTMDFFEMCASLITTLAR

panel of 393 kinases [13] = molecular target: T12, panel of 393 kinases (Homo sapiens, UniProt P78527); assay: biochemical; details: CIMSS 10 μM, 10 μM ATP
T12 construct: purchased Reaction Biology Corporation

Akt, PDPK1 = assay type: cell-based, monkey; details: 10 μM, Vero, VSV-S, 30 and 60 minutes
AKT2 = molecular target: T13, AKT2 (Homo sapiens, UniProt P31751); assay: HotSpot in vitro kinase assay, AKT2; assay type: biochemical
T13 construct: purchased Reaction Biology Corporation
T13 sequence (P31751 whole entry): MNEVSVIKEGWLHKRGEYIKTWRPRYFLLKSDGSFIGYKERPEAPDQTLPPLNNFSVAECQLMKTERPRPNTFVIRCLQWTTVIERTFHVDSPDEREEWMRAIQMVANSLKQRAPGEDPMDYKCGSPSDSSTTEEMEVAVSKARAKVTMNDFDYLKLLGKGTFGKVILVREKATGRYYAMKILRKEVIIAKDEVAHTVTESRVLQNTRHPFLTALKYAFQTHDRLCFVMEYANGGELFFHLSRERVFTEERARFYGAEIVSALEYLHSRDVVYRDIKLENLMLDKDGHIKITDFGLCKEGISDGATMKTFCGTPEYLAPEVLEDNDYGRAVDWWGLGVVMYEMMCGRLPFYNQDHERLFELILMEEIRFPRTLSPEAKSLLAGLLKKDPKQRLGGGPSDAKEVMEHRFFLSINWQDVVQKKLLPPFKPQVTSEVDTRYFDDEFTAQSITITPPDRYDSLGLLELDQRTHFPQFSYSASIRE

CO[C@@H]1[C@H](N(C)C(=O)CCC(=O)NCc2cn(CCCS(=O)(=O)[O-])nn2)C[C@H]2O[C@]1(C)n1c3ccccc3c3c4c(c5c6ccccc6n2c5c31)C(=O)NC4.[Na+] [CIMSS]
nuclear transport of VP-16 (HSV-2(G)): inhibited | cytotoxicity [1]: little or no cytotoxicity | remaining activity at 10 µM (panel of 393 kinases [2]; read-out: % Enzyme Activity (relative to DMSO controls) CIMSS (10 μM) Data 1, kinase mTOR/FRAP1, Data 1): 112% | remaining activity at 10 µM (panel of 393 kinases [2]; read-out: % Enzyme Activity (relative to DMSO controls) CIMSS (10 μM) Data 2, kinase mTOR/FRAP1, Data 2): 108% | remaining activity at 10 µM (panel of 393 kinases [3]; read-out: % Enzyme Activity (relative to DMSO controls) CIMSS (10 μM) Data 1, kinase EIF2AK3, Data 1): 61.6% | remaining activity at 10 µM (panel of 393 kinases [3]; read-out: % Enzyme Activity (relative to DMSO controls) CIMSS (10 μM) Data 2, kinase EIF2AK3, Data 2): 60.2% | remaining activity at 10 µM (panel of 393 kinases [4]; read-out: % Enzyme Activity (relative to DMSO controls) CIMSS (10 μM) Data 1, kinase PDK1/PDHK1, Data 1): 97.2% | remaining activity at 10 µM (panel of 393 kinases [4]; read-out: % Enzyme Activity (relative to DMSO controls) CIMSS (10 μM) Data 2, kinase PDK1/PDHK1, Data 2): 96.8% | remaining activity at 10 µM (panel of 393 kinases [5]; read-out: % Enzyme Activity (relative to DMSO controls) CIMSS (10 μM) Data 1, kinase PDK4/PDHK4, Data 1): 93.2% | remaining activity at 10 µM (panel of 393 kinases [5]; read-out: % Enzyme Activity (relative to DMSO controls) CIMSS (10 μM) Data 2, kinase PDK4/PDHK4, Data 2): 93% | remaining activity at 10 µM (panel of 393 kinases [6]; read-out: % Enzyme Activity (relative to DMSO controls) CIMSS (10 μM) Data 1, kinase PDK2/PDHK2, Data 1): 95.5% | remaining activity at 10 µM (panel of 393 kinases [6]; read-out: % Enzyme Activity (relative to DMSO controls) CIMSS (10 μM) Data 2, kinase PDK2/PDHK2, Data 2): 94% | remaining activity at 10 µM (panel of 393 kinases [7]; read-out: % Enzyme Activity (relative to DMSO controls) CIMSS (10 μM) Data 1, kinase AMPK(A1/B1/G1), Data 1): 1.14% | remaining activity at 10 µM (panel of 393 kinases [7]; read-out: % Enzyme Activity (relative to DMSO controls) CIMSS (10 μM) Data 1, kinase AMPK(A1/B1/G2), Data 1): 1.46% | remaining activity at 10 µM (panel of 393 kinases [7]; read-out: % Enzyme Activity (relative to DMSO controls) CIMSS (10 μM) Data 1, kinase AMPK(A1/B1/G3), Data 1): 0.22% | remaining activity at 10 µM (panel of 393 kinases [7]; read-out: % Enzyme Activity (relative to DMSO controls) CIMSS (10 μM) Data 1, kinase AMPK(A1/B2/G1), Data 1): 0.73% | remaining activity at 10 µM (panel of 393 kinases [7]; read-out: % Enzyme Activity (relative to DMSO controls) CIMSS (10 μM) Data 2, kinase AMPK(A1/B1/G1), Data 2): 1.14% | remaining activity at 10 µM (panel of 393 kinases [7]; read-out: % Enzyme Activity (relative to DMSO controls) CIMSS (10 μM) Data 2, kinase AMPK(A1/B1/G2), Data 2): 1.23% | remaining activity at 10 µM (panel of 393 kinases [7]; read-out: % Enzyme Activity (relative to DMSO controls) CIMSS (10 μM) Data 2, kinase AMPK(A1/B1/G3), Data 2): 0.07% | remaining activity at 10 µM (panel of 393 kinases [7]; read-out: % Enzyme Activity (relative to DMSO controls) CIMSS (10 μM) Data 2, kinase AMPK(A1/B2/G1), Data 2): 0.57% | remaining activity at 10 µM (panel of 393 kinases [8]; read-out: % Enzyme Activity (relative to DMSO controls) CIMSS (10 μM) Data 1, kinase PDK3/PDHK3, Data 1): 96.4% | remaining activity at 10 µM (panel of 393 kinases [8]; read-out: % Enzyme Activity (relative to DMSO controls) CIMSS (10 μM) Data 2, kinase PDK3/PDHK3, Data 2): 94.8% | remaining activity at 10 µM (panel of 393 kinases [9]; read-out: % Enzyme Activity (relative to DMSO controls) CIMSS (10 μM) Data 1, kinase EIF2AK4, Data 1): 9.5% | remaining activity at 10 µM (panel of 393 kinases [9]; read-out: % Enzyme Activity (relative to DMSO controls) CIMSS (10 μM) Data 2, kinase EIF2AK4, Data 2): 9.39% | remaining activity at 10 µM (panel of 393 kinases [10]; read-out: % Enzyme Activity (relative to DMSO controls) CIMSS (10 μM) Data 1, kinase TRPM7/CHAK1, Data 1): 91.6% | remaining activity at 10 µM (panel of 393 kinases [10]; read-out: % Enzyme Activity (relative to DMSO controls) CIMSS (10 μM) Data 2, kinase TRPM7/CHAK1, Data 2): 91.5% | remaining activity at 10 µM (panel of 393 kinases [11]; read-out: % Enzyme Activity (relative to DMSO controls) CIMSS (10 μM) Data 1, kinase EIF2AK2, Data 1): 9.89% | remaining activity at 10 µM (panel of 393 kinases [11]; read-out: % Enzyme Activity (relative to DMSO controls) CIMSS (10 μM) Data 2, kinase EIF2AK2, Data 2): 9.34% | remaining activity at 10 µM (panel of 393 kinases [12]; read-out: % Enzyme Activity (relative to DMSO controls) CIMSS (10 μM) Data 1, kinase AMPK (A2/B1/G3), Data 1): 0.67% | remaining activity at 10 µM (panel of 393 kinases [12]; read-out: % Enzyme Activity (relative to DMSO controls) CIMSS (10 μM) Data 1, kinase AMPK(A2/B1/G1), Data 1): 0.76% | remaining activity at 10 µM (panel of 393 kinases [12]; read-out: % Enzyme Activity (relative to DMSO controls) CIMSS (10 μM) Data 1, kinase AMPK(A2/B2/G1), Data 1): 0.34% | remaining activity at 10 µM (panel of 393 kinases [12]; read-out: % Enzyme Activity (relative to DMSO controls) CIMSS (10 μM) Data 1, kinase AMPK(A2/B2/G2), Data 1): 0.73% | remaining activity at 10 µM (panel of 393 kinases [12]; read-out: % Enzyme Activity (relative to DMSO controls) CIMSS (10 μM) Data 1, kinase AMPK(A2/B2/G3), Data 1): 0.63% | remaining activity at 10 µM (panel of 393 kinases [12]; read-out: % Enzyme Activity (relative to DMSO controls) CIMSS (10 μM) Data 2, kinase AMPK (A2/B1/G3), Data 2): 0.59% | remaining activity at 10 µM (panel of 393 kinases [12]; read-out: % Enzyme Activity (relative to DMSO controls) CIMSS (10 μM) Data 2, kinase AMPK(A2/B1/G1), Data 2): 0.64% | remaining activity at 10 µM (panel of 393 kinases [12]; read-out: % Enzyme Activity (relative to DMSO controls) CIMSS (10 μM) Data 2, kinase AMPK(A2/B2/G1), Data 2): 0.23% | remaining activity at 10 µM (panel of 393 kinases [12]; read-out: % Enzyme Activity (relative to DMSO controls) CIMSS (10 μM) Data 2, kinase AMPK(A2/B2/G2), Data 2): 0.63% | remaining activity at 10 µM (panel of 393 kinases [12]; read-out: % Enzyme Activity (relative to DMSO controls) CIMSS (10 μM) Data 2, kinase AMPK(A2/B2/G3), Data 2): 0.61% | remaining activity at 10 µM (panel of 393 kinases [13]; read-out: % Enzyme Activity (relative to DMSO controls) CIMSS (10 μM) Data 1, kinase DNA-PK, Data 1): 98.2% | remaining activity at 10 µM (panel of 393 kinases [13]; read-out: % Enzyme Activity (relative to DMSO controls) CIMSS (10 μM) Data 2, kinase DNA-PK, Data 2): 95.8% | extracellular phosphorylation of Akt (biotinylation, pAktT308) (Akt, PDPK1): inhibited | pIC50 (AKT2; in vitro kinase activity, read-out: Compound IC50, AKT2): 6.00 | inhibition at 10 µM (AKT2; read-out: inhibition of Akt2): > 75%
